Data set [1] concerns the target T1, Trypanosoma brucei pteridine reductase 1 (TbPTR1) (Trypanosoma brucei brucei, UniProt O76290).
T1 construct: made in house
T1 sequence (O76290 1-268): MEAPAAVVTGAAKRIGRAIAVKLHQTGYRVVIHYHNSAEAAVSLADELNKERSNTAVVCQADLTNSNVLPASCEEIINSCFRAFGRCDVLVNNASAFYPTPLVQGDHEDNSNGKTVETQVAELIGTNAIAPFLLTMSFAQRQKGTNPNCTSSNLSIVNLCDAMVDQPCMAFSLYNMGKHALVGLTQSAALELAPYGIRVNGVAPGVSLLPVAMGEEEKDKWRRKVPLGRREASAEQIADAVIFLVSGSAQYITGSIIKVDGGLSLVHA
As to conditions: flavonols 1A–3A, cited from earlier work; for IC50: evaluated as in previous paper.

The target of data set [2] is T2, Leishmania major pteridine reductase 1 (LmPTR1) (Leishmania major, UniProt Q01782).
T2 construct: made in house
T2 sequence (Q01782 1-288): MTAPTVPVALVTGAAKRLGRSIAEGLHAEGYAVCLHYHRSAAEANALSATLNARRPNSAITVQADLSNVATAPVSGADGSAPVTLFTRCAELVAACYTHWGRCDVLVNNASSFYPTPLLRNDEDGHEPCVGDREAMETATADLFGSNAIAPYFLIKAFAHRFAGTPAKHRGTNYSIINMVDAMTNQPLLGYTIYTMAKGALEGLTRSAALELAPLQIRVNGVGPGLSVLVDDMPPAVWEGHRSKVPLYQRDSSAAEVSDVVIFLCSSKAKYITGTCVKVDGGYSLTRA
The following applies: flavonols 1A–3A, cited from earlier work; for IC50: evaluated as in previous paper.

Data set [3] concerns L. infantum (MHOM/BR/1972/BH46) intracellular amastigotes. Kind of data set: Activity against L. infantum intramacrophage amastigotes (high-content imaging). The data set is classed as cell-based, Leishmania infantum. As to conditions: Leishmania infantum; read-out: IC50 (reference compound for L. infantum). As for the experimental part:
[…] THP-1 cells were plated onto 384-well plates in Roswell Park Memorial Institute (RPMI) 1640 medium, Hyclone, GE Healthcare Life Sciences (Issaquah, WA, USA) containing 50 ng/mL phorbol 12-myristate 13-acetate (PMA, Sigma-Aldrich, Saint Louis, MS, USA), and incubated for 48 h. Then, 6 day-old promastigotes were added, at a ratio of 50 parasites per each THP-1 cell seeded earlier. After 24 h of infection, negative controls (0.5% DMSO), positive controls (10 μM amphotericin B) or compounds were added to the plate. Assay plates were incubated for 48 h, and then fixed with 4% paraformaldehyde and stained with Draq 5. The Operetta high-content automated imaging system was used to acquire images and the Harmony Software was optimized to quantify the host cell number, the infection ratio and the number of parasites per infected cell. The ratio between infected cells and total number of cells is then calculated, and defined as the Infection Ratio (IR). The raw data for IR values was normalized to negative—DMSO (mock)-treated infected cells—and positive (non-infected cells) controls to determine the normalized antiparasitic activity.

The target of data set [4] is T1, Trypanosoma brucei pteridine reductase 1 (TbPTR1). The data set is described as follows: TbPTR1 enzyme reporter assay (cytochrome-c reduction, 550 nm). The following applies: read-out: % Inhibition TbPTR1 (50 μM), 50 μM; compounds 1–3 and control. The data set is classed as biochemical. As for the experimental part:
(§1) TbPTR1 and LmPTR1 were purified as reported in literature. The enzyme kinetic profile of each selected protein was characterized by a spectrophotometric assay. The experimental assay consists of enzyme kinetic reaction monitoring at 340 nm for a total time of 180 s. The enzyme kinetic activity was measured at steady-state concentration of 7,8-dihydro-L-biopterin (H2B) and NADPH substrates equal to 50 and 120 µM and varying the enzyme concentration in the 0.001–0.006 µM and 0.005–0.010–0.015–0.020–0.025–0.030 µM range for Lm- and TbPTR1, respectively. The resulting kcat values were equal to 0.68 (s^−1) and 7.2 (s^−1) for Tb- and LmPTR1, respectively. For both TbPTR1 and LmPTR1, the Km value evaluation assay for H2B- and NADPH-substrates was performed in the 0.3-0.6–0.9–1.2–2.4–4.8 µM and 3.0–6.0–12.0–40.0–90.0–190.0 µM concentrations range, respectively.
(§2) Compounds 1A–3A were evaluated as reported in our previous paper. The novel synthesized compounds 1–3 were tested towards TbPTR1 and LmPTR1 using the in vitro TbPTR1/LmPTR1 enzyme reporter assay. The experimental procedure consists of monitoring the non-enzymatic reduction reaction of cytochrome-c at 550 nm, related to the reduction reaction of H2B to tetrahydrobiopterin (H4B) by using NADPH as the cofactor. TbPTR1 and LmPTR1 enzyme activity was assayed in a buffer containing 20 mM sodium citrate (pH 6.0) in a final experimental volume equal to 600 µL. The final reaction mixture contained different substrates added in the following order: TbPTR1/LmPTR1 (0.018 µM/0.002 µM) in 20 mM Tris-HCl, glycerol 10% (v/v), pH 7.5; H2B at a final concentration equal to 0.3 µM; cytochrome-c (80 µM); Milli-Q water to a final volume of 600 µL and NADPH to a final concentration of 500 µM. Before the addition of NADPH, the reaction mixture was incubated for 10 min at 30 °C and 80 RPM. To allow the starting of the reaction, NADPH was added and the enzyme reaction was detected for a total time of 10 min at 30 °C, 550 nm. The inhibition profile characterization of compounds 1–3 was performed with a DU-640 spectrophotometer (Beckman Coulter, Brea, CA, USA). Each compound was assayed in duplicate against Tb/LmPTR1 target enzymes in the 0–10–25–50–80–150 µM concentrations range. At the different concentration values, the compounds were added to the reaction mixture (enzyme, H2B, cytochrome-c in 20 mM sodium citrate buffer and Milli-Q water) and incubated for 10 min at 30 °C, 80 RPM. The reaction was initiated by the addition of NADPH (500 µM) and monitored for 10 min at 30 °C, 550 nm. The absorbance values were processed by software analysis and transformed into the corresponding slopes. The percentages of inhibition and the IC50 values were determined.

The target of data set [5] is T2, Leishmania major pteridine reductase 1 (LmPTR1). The data set is described as follows: LmPTR1 enzyme reporter assay (cytochrome-c reduction, 550 nm). In kind it is biochemical. The following applies: read-out: % Inhibition LmPTR1 (50 μM). On the procedure:
as §1, §2

Data set [6] relates to T. brucei bloodstream forms. Kind of data set: Activity against T. brucei bloodstream forms (resazurin-based assay). In kind it is cell-based, Trypanosoma brucei. As to conditions: Trypanosoma brucei; read-out: IC50 (reference compound for T. brucei). On the procedure: The efficacy of compounds against T. brucei bloodstream forms was evaluated using a modified resazurin-based assay previously described in literature.

Data set [7] concerns the molecule itself. Kind of data set: crystal structure; LmPTR1-NADP+ ternary complexes with compound 1 and with compound 3; hanging drop, 293 K, 12% PEG 4600, 100 mM sodium acetate pH 5.5, 120-160 mM calcium acetate; compounds soaked into pre-formed crystals; one homotetramer in the asymmetric unit.
Data set [8] deals with the molecule itself. Kind of data set: crystal structure; TbPTR1-NADP+-compound 1 ternary complex; sitting drop, room temperature, 1.5-2.5 M sodium acetate, 0.1 M sodium citrate pH 5.0; compound soaked into pre-formed crystals; one homotetramer in the asymmetric unit.

This is an account of results in publication PMC6155272, “Chroman-4-One Derivatives Targeting Pteridine Reductase 1 and Showing Anti-Parasitic Activity” (Molecules : A Journal of Synthetic Chemistry and Natural …, 2017).

In the case of `O=c1c(O)c(-c2ccc(O)cc2)oc2ccc(O)cc12` [Compound 2A], in data set [1], the “% Inhibition TbPTR1 (50 μM)” value is 2.6%. The “% Inhibition LmPTR1 (50 μM)” value in data set [2] is 10.8%.

As to `CCCCCCCCCCCCCCCCOP(=O)([O-])OCC[N+](C)(C)C` [miltefosine, reference compound], the IC50 in data set [3] amounted to 2.65 ± 0.4 µM.

On to `O=c1c(O)c(-c2cccc(O)c2)oc2ccc(O)cc12` [Compound 1A], for which, in data set [1], the “% Inhibition TbPTR1 (50 μM)” value is 96.1% and the concentration for half-maximal inhibition (IC50) is 4.3 µM. In data set [2], the “% Inhibition LmPTR1 (50 μM)” value is given as 86.2% and the concentration for half-maximal inhibition (IC50) is 12.5 µM.

Take `CCc1nc(N)nc(N)c1-c1ccc(Cl)cc1` [pyrimethamine, reference compound]: the inhibition at 50 µM in data set [4] and in data set [5] was 100% throughout.

Regarding `O=c1c(O)c(-c2ccc(O)c(O)c2)oc2ccc(O)cc12` [Compound 3A], in data set [1], the “% Inhibition TbPTR1 (50 μM)” value is given as 53.1% and the IC50 is 38 µM. In data set [2], the “% Inhibition LmPTR1 (50 μM)” value is on record as 75.4% and the IC50 is 35 µM.

Consider `N=C(N)c1ccc(OCCCCCOc2ccc(C(=N)N)cc2)cc1` [pentamidine, reference compound], for which, in data set [6], the half-inhibitory concentration (IC50) is 0.00155 ± 0.00024 µM.

B1: Leishmania major pteridine reductase 1 (enzyme)
chain: MTAPTVPVALVTGAAKRLGRSIAEGLHAEGYAVCLHYHRSAAEANALSATLNARRPNSAITVQADLSNVATAPVSGADGSAPVTLFTRCAELVAACYTHWGRCDVLVNNASSFYPTPLLRNDEDGHEPCVGDREAMETATADLFGSNAIAPYFLIKAFAHRFAGTPAKHRGTNYSIINMVDAMTNQPLLGYTIYTMAKGALEGLTRSAALELAPLQIRVNGVGPGLSVLVDDMPPAVWEGHRSKVPLYQRDSSAAEVSDVVIFLCSSKAKYITGTCVKVDGGYSLTRA
notes: pteridine reductase 1 (PTR1) of Leishmania major; Crystallised with NADPH/NADP+ and soaked with compound 1 or 3 (small molecules); also called LmPTR1; PTR1; source: expressed and purified as reported in literature [14]
With B1, in data set [7], the “stoichiometry N” value was determined as 4.

B2: Trypanosoma brucei pteridine reductase 1 (enzyme)
chain: MEAPAAVVTGAAKRIGRAIAVKLHQTGYRVVIHYHNSAEAAVSLADELNKERSNTAVVCQADLTNSNVLPASCEEIINSCFRAFGRCDVLVNNASAFYPTPLVQGDHEDNSNGKTVETQVAELIGTNAIAPFLLTMSFAQRQKGTNPNCTSSNLSIVNLCDAMVDQPCMAFSLYNMGKHALVGLTQSAALELAPYGIRVNGVAPGVSLLPVAMGEEEKDKWRRKVPLGRREASAEQIADAVIFLVSGSAQYITGSIIKVDGGLSLVHA
modifications: oxo-cysteine at residue 168
notes: pteridine reductase 1 (PTR1) of Trypanosoma brucei; Crystallised with the cofactor NADP+ and soaked with compound 1 (small molecules); also called TbPTR1; PTR1; source: expressed and purified as reported in literature [14]
Turning to B2, in data set [8], the “stoichiometry N” value turned out to be 4.

In general, IC50 refers to the midpoint of a concentration-inhibition curve. A word on the inhibition: it is the relative decrease from the control value, in per cent. In general, stoichiometry N refers to a count of units in the complex or per binding partner.
